In US20210369677A1, “SMALL MOLECULE ACTIVATORS OF POLYCYSTIN-2 (PKD2) AND USES THEREOF” (Northwestern University, priority 2020, published 2021) one finds EC50 data, which are given here for one compound.

This test addresses T1, polycystin-2 channels (Mus musculus, UniProt O35245, DEL771-772).
T1 construct: the mouse channel orthologue under endogenous expression in the kidney collecting duct; endogenous in cells; host or cells: primary inner medullary collecting duct (pIMCD) cells of ARL13B-EGFP mice
T1 sequence (O35245 with tags, fused parts or gaps DEL771-772): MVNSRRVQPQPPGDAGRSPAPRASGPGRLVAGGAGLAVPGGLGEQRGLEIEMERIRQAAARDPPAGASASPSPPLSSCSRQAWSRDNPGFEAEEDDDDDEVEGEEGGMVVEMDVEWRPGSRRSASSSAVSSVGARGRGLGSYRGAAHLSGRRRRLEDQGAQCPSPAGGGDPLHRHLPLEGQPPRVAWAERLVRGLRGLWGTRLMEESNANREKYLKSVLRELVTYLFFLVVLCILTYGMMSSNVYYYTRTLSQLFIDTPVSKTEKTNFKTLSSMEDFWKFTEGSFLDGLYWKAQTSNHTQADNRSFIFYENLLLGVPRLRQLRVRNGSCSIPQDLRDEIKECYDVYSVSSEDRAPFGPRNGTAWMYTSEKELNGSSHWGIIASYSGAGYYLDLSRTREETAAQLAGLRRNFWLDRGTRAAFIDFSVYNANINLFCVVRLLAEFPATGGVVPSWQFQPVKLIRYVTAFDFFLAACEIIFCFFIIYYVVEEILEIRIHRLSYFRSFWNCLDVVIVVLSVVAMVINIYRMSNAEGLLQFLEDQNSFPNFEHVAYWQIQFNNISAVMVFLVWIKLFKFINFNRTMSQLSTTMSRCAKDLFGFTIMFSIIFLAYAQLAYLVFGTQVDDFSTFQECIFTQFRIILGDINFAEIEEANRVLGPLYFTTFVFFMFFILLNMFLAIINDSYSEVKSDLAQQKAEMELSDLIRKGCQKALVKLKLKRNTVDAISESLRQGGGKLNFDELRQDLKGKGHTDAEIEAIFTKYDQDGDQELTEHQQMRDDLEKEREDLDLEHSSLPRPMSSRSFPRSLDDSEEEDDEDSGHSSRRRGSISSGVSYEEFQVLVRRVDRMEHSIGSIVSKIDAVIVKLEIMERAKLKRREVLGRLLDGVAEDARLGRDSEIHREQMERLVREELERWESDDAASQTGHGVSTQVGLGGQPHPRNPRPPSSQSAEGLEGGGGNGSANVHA
Briefly: Inside-out cilia patch of pIMCD cells, calcium opening of polycystin-2 channels. Type of test: cell-based. The following applies: Pkd2del-Z/delZ mice; read-out: EC50, potency of calcium opening polycystin-2 channels. As to the method: Cell culture of primary inner medullary collecting duct cells and immortalized cell lines. Primary inner medullary collecting ducts cells (pIMCD) were isolated from WT or Pkd2^del-Z/del-Z mice co-expressing the ARL13B-EGFP cilia reporter using the previously described method (Liu et al., 2018). Briefly, inner medullae were removed from the kidney and disassociated using a Dulbecco's phosphate buffered solution (DPBS) containing 2 mg/ml collagenase A and 1 mg/ml hyaluronidase. After mechanical disassociation on ice, medullary cells were cultured in Dulbecco's modified essential medium (DMEM) supplemented with 10% fetal bovine serum (FBS) and 100 units/ml penicillin/100 μg/ml streptomycin. Cilia were patched from cells within 6 days after isolation and within one passage. HEK PKD2^Null cell lines were generated using the CRISPR/Cas9 gene editing kit available from Addgene and authenticated using PCR analysis, as previously described (Liu et al., 2018). […]
Electrophysiology. The electrophysiologist was blinded by a third party in the laboratory, where test groups were assigned a letter to conceal the genetic identity of the cells being evaluated. […] Ciliary ion currents were recorded using borosilicate glass electrodes polished to resistances of 14-23 MΩ using the cilium patch method previously described (Vien et al., 2020). Single channel currents measured in the inside-out configuration were recorded in symmetrical sodium concentrations. […] Calcium was buffered with 5 EGTA (ethylene glycol-bis(o-aminoethyl ether)-N,N,N′,N′-tetraacetic acid), 5 Na4-BAPTA (Glycine, N, N′-[1,2-ethanediylbis(oxy-2,1-phenylene)]bis[N-(carboxymethyl)]-,tetrasodium) and 0.5 EDTA […]; free calcium was calculated using Maxchilator and titration of 1 M CaCl2) solution (Bers et al., 2010); pH was adjusted to 7.3 using NaOH. […] Whole cell currents used to measure CDD were also recorded in symmetrical sodium concentration, placing the internal recording solution in the pipette electrode and the external recording solution in the bath. […]

A word on the EC50: it is the midpoint of the concentration-response curve. For `[Ca+2]` [Ca^2+, calcium], the EC50 came out at 1400 ± 300 nM.
